Data reported in patent publication US12516041B2, “Crystal forms of GLP-1R agonists and uses thereof” (QILU REGOR THERAPEUTICS INC., priority 2020, dated 2026).
In brackets after ≈: the same amount, converted by molar mass. Where two headings read alike, the source gives them in different places.

Key:
Assay type in all cases: physicochemical
[1] = Solubility test in bio-relevant media (SGF, FeSSIF, FaSSIF), HPLC of filtrate, XRPD of filter cake; conditions: for solubility at 24 h / solubility at 0.5 h / solubility at 2 h: 37 °C, thermodynamic from solid; for solubility at 24 h: read-out: Solubility (μg/mL) 24 h; for solubility at 0.5 h: read-out: Solubility (μg/mL) 0.5 h; for solubility at 2 h: read-out: Solubility (μg/mL) 2 h
Experimental: (§1) HPLC analysis was performed with an Agilent HPLC 1260 series instrument.
(§2) HPLC Method for Stability and Solubility Testing
The solubility of free acid Form I was tested in bio-relevant media (Simulated Gastric Fluid (SGF), Fasted-State Simulated Intestinal Fluid (FaSSIF) and Fed-State Simulated Intestinal Fluid (FeSSIF)) at 37° C. for up to 24 hours. About 15 mg of the sample was weighed into sample vial, and then 5.0 mL of bio-relevant media was added to make suspension. All suspensions prepared were shaken @ 600 rpm with a QQMSC-100 shaker at 37° C. At 0.5, 2 and 24 hours, about 1000 μL of each suspension was filtered and diluted, and then the filtrate was analyzed by HPLC to test the solubility. The pH of the filtrate was measured, and the filter cake was analyzed by XRPD.

[2] = Dynamic Vapor Sorption (DVS)
Description: Moisture sorption/desorption data was collected on a Vsorp Dynamic Moisture Sorption Analyzer (ProUmid GmbH & Co. KG, Germany). The sample was placed into a tared sample chamber and automatically weighed.
The product obtained from preparation method 1 was characterized by XRPD (FIG. 1), TGA, DSC (FIG. 2), DVS (FIG. 3), and ^1H-NMR.

[3] = Solid-state stability study (HPLC purity, XRPD)
Experimental: XRPD patterns were identified with an X-ray diffractometer (PANalytical Empyrean). The system was equipped with PIXcel^1D detector. Samples were scanned from 3 to 40° 2θ, at a step size of 0.013° 2θ. The tube voltage and current were 45 KV and 40 mA, respectively.
as §1, §2
About 25 mg of free acid Form I was placed at 60° C./capped and 40° C./75% RH (open) conditions for up to 12 days. At day 0 and 7, the sample was dissolved in diluent to prepare 0.5 mg/mL solution for HPLC purity analysis. Solid samples were analyzed by XRPD to check the crystal form at day 12.

Compound: O=C(O)c1ccc2nc(Cc3ccc(-c4cccc(OCc5ccc(Cl)cc5F)n4)cc3F)n(C[C@@H]3CCO3)c2c1 [Free Acid Form I, (S)-2-(4-(6-((4-chloro-2-fluorobenzyl)oxy)pyridin-2-yl)-2-fluorobenzyl)-1-(oxetan-2-ylmethyl)-1H-benzo[d]imidazole-6-carboxylic acid]
- solubility at 24 h ([1]; FaSSIF, pH 6.45, fassif, FaSSIF, pH 6.45 (24 h)): 15 µg/mL (≈ 26 µM)
- solubility at 0.5 h ([1]; FaSSIF, pH 6.5, fassif, FaSSIF, pH 6.50 (0 h)): ~5 µg/mL (≈ 8.68 µM)
- solubility at 2 h ([1]; FaSSIF, pH 6.5, fassif, FaSSIF): 6 µg/mL (≈ 10.4 µM)
- solubility at 24 h ([1]; FeSSIF, pH 4.95, fessif, FeSSIF, pH 4.95 (24 h)): 11 µg/mL (≈ 19.1 µM)
- solubility at 0.5 h ([1]; FeSSIF, pH 4.99, fessif, FeSSIF, pH 4.99 (0 h)): ~10 µg/mL (≈ 17.4 µM)
- solubility at 2 h ([1]; FeSSIF, pH 4.99, fessif, FeSSIF): 17 µg/mL (≈ 29.5 µM)
- Solubility in SGF (in words) ([1]; SGF, 37° C.): insoluble
- XRPD pattern after solubility study ([1]; bio-relevant media, 37° C., up to 24 hours): not changed
- XRPD (24 h) ([1]; filter cake after 24 h in FaSSIF, 37° C.): Unchanged
- XRPD (24 h) ([1]; filter cake after 24 h in FeSSIF, 37° C.): Unchanged
- XRPD (24 h) ([1]; filter cake after 24 h in SGF, 37° C.): Unchanged
- Hygroscopicity (DVS) [2]: Slightly
- DVS weight change to 90% RH ([2]; 0 to 90% RH): 0.6%
- Crystal form after DVS test ([2]; after DVS test): remained unchanged
- DVS weight change 0-80% RH ([2]; from 0 to 80% RH): ~0.3%
- Hygroscopicity (DVS) ([2]; listed as crystalline Form I of Compound A free acid): slightly hygroscopic
- Hygroscopicity (DVS) ([2]; listed as free acid Form I): slightly hygroscopic
- Purity-1 week (Area %) 40° C./75% RH, 1 week ([3]; 40° C./75% RH (open), 1 week, HPLC): 99.56 Area %
- XRPD-12 days 40° C./75% RH ([3]; 40° C./75% RH (open), 12 days): Unchanged
- Physical and chemical stability (in words) ([3]; 60° C./capped and 40° C./75% RH (open), 12 days): physically and chemically stable
- Purity-1 week (Area %) 60° C./Capped, 1 week ([3]; 60° C./capped, 1 week, HPLC): 99.54 Area %
- XRPD-12 days 60° C./Capped ([3]; 60° C./capped, 12 days): Unchanged
- Initial Purity (Area %) ([3]; day 0, HPLC): 99.58 Area %
